{
  "source": "patent US20130295666A1",
  "about": "“CRYSTALS OF GLUCOKINASE REGULATORY PROTEIN (GKRP)” (Boehringer Ingelheim International GmbH, priority 2011, published 2013)",
  "key": {"hGKRP_C-His [1]": {"target": "T1, hGKRP_C-His (Homo sapiens, UniProt Q14397)", "T1 construct": "made in house; host or cells: High FIVE insect cells (baculovirus, BAC-to-BAC)", "T1 sequence (Q14397 with tags, fused parts or gaps)": "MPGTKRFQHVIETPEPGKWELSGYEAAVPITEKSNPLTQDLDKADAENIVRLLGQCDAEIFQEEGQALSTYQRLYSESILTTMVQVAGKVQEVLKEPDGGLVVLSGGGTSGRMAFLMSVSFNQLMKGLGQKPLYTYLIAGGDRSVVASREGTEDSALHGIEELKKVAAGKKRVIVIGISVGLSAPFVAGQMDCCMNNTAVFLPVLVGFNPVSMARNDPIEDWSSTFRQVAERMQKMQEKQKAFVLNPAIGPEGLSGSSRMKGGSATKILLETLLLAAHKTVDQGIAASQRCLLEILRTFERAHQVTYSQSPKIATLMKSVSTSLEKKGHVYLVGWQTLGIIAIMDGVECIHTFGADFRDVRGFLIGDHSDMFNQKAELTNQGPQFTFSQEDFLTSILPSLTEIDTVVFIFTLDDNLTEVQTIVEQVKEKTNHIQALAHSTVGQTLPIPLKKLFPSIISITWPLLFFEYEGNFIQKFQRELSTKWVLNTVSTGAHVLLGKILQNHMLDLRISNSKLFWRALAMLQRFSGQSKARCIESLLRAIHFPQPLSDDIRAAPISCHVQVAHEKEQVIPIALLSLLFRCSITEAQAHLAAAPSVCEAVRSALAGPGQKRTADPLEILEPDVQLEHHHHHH", "assay": "amide hydrogen (H/D) exchange, ligand-bound vs apo-GKRP", "assay_type": "binding", "conditions": "30 min H/D exchange; six regions; compared to apo-GKRP", "method": "This experiment was performed to map the potential ligand binding sites via the amide hydrogen exchange behaviour of apo-GKRP in comparison to ligand-bound GKRP.\nAmide hydrogen (H/D) exchange was initiated by a 20-fold dilution of 30 pmol hGKRP_C-His with or without ligand into D2O containing 100 mM HEPES, pD 7.4, 200 mM KCl, 100 mM MgCl2, and 2 mM DTT and incubated at room temperature.\nAfter various time points (10 sec, 1 min and 30 min), the exchange reaction was quenched by decreasing the temperature to 0° C. and the pH to 2.5 with quench buffer (500 mM KH2PO4/H3PO4, pH 2.5, 2 M Urea, and 2 mM TCEP). Quenched samples were directly injected into an HPLC setup and analyzed on an electrospray ionization-quadrupole time of flight-mass spectrometer (QSTAR XL, Applied Biosystems) as described by Rist et al. (2003): Mapping temperature-induced conformational changes in the Escherichia coli heat shock transcription factor sigma 32 by amide hydrogen exchange, J. Biol. Chem., 278, 51415-51421.\nThe HPLC setup contained a column (2×20 mm) packed with Poroszyme immobilized pepsin (Applied Biosystems, Darmstadt, Germany). […] The deuterium content of the peptides was calculated by using the average mass difference between the isotopic envelopes of the deuterated and the undeuterated peptides. […]"}, "rat GKRP": {"target": "T2, rat GKRP (Rattus norvegicus, UniProt Q07071)", "T2 sequence (Q07071 1-627)": "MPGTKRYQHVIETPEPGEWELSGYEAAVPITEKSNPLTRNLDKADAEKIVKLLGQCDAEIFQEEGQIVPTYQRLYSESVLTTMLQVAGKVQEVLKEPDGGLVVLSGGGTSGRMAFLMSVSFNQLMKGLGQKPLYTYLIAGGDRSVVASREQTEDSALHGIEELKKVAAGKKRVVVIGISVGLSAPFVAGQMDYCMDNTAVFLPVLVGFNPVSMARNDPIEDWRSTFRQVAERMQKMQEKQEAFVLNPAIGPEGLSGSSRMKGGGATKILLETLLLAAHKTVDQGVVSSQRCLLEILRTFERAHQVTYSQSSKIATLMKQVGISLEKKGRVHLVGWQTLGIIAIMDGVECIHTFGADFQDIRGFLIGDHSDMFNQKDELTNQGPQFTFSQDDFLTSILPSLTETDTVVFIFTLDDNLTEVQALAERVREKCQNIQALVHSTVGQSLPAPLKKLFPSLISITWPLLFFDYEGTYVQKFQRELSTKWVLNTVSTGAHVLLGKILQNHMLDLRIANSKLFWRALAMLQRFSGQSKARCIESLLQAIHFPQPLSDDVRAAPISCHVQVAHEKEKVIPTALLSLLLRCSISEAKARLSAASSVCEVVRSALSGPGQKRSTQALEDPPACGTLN", "conditions": "Van Schaftingen 1989, Veiga-da-Cunha and Van Schaftingen 2002; cited from earlier work"}, "hGKRP_C-His [2]": {"target": "T1, hGKRP_C-His", "assay": "F1P competition with F6P in the coupled GK assay, using hGKRP_C-His", "assay_type": "biochemical", "conditions": "in the presence of 6 μM F6P, read-out: EC50 of F1P to increase apparent GK activity (inactive GK-GKRP-F6P complex towards free GK)", "source_text": "(§1) GKRP preparations according to examples 1 and 2 have been examined with respect to their enzymatic activity. The applied enzymatic assay measures the effect of GKRP on glucokinase activity in the form of a glucose-6-phosphate dehydrogenase coupled assay at room temperature which is a modification of the method described by Van Schaftingen and Brocklehurst et al. (Van Schaftingen, E. (1989): A protein from rat liver confers to glucokinase the property of being antagonistically regulated by fructose 6-phosphate and fructose 1-phosphate; Eur. J. Biochem., 179, 179-184; Brocklehurst, K. J., Davies, R. A. and Agius, L. (2004): Differences in regulatory properties between human and rat glucokinase regulatory protein; Biochem. J., 378, 693-697).\n(§2) The reaction mixture contained 150 mM KCl, 100 mM Hepes, 1 mM ATP, 1 mM MgCl2, 2 mM NADP^+, 2 mM dithiothreitol, pH 7.4, 5 units/ml glucose-6-phosphate dehydrogenase, 0.5 mg/ml BSA, 10 mM glucose, 6 μM fructose 6-P, 15 nM human liver glucokinase and 100 nM of the respective GKRP. The enzymatic reaction was started by the addition of ATP and glucose. The increase in optical density was measured at a wavelength 340 nm over 10 minutes. From these kinetic data, the slope was calculated and graphically depicted.\n(§3) This effect was investigated using both hGKRP_C-His as well as hGKRP_C-His_K326T/K327T. […]"}, "hGKRP_C-His_K326T/K327T": {"target": "T3, hGKRP_C-His_K326T/K327T (Homo sapiens, UniProt Q14397, K326T/K327T)", "T3 construct": "made in house; host or cells: High FIVE insect cells (baculovirus, BAC-to-BAC)", "T3 sequence (Q14397 with tags, fused parts or gaps K326T/K327T)": "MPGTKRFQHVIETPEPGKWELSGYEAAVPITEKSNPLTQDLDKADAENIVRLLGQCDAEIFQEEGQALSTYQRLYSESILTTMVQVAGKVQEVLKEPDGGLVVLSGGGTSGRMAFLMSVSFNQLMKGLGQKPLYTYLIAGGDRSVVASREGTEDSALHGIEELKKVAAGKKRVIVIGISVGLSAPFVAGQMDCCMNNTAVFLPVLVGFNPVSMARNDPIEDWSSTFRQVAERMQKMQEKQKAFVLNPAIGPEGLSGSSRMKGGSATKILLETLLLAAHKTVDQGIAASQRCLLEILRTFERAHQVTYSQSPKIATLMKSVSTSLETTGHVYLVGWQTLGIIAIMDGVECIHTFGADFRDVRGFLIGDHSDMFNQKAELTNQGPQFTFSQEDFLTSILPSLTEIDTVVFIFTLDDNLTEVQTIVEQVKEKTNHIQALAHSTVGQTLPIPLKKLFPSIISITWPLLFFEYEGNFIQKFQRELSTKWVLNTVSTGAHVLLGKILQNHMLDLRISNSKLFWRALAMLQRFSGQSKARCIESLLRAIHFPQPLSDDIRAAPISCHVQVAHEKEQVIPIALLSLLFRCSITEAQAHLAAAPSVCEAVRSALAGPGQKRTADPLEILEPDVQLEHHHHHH", "assay": "F1P competition with F6P in the coupled GK assay, using hGKRP_C-His_K326T/K327T", "assay_type": "biochemical", "conditions": "in the presence of 6 μM F6P, read-out: EC50 of F1P to increase apparent GK activity (inactive GK-GKRP-F6P complex towards free GK)", "source_text": "as §1, §2, §3"}, "human liver glucokinase [3]": {"target": "T4, human liver glucokinase (human, UniProt P35557-2 1-466, limits assumed)", "T4 sequence (looked up)": "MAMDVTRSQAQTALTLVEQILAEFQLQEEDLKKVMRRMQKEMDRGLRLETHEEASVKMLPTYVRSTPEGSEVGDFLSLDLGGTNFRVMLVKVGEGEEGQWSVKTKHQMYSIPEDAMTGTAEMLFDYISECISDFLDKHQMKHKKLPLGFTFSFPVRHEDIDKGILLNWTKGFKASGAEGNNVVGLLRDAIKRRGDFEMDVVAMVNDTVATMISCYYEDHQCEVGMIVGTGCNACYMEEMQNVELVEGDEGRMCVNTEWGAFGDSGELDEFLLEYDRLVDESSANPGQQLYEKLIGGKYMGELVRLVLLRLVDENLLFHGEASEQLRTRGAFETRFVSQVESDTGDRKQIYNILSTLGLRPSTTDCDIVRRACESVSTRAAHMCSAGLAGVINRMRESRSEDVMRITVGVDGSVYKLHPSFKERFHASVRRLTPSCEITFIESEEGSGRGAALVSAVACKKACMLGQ", "assay": "cell-based or functional assay"}, "human liver glucokinase [4]": {"tested_on": "human liver glucokinase", "assay": "glucose-6-phosphate dehydrogenase coupled assay measuring the effect of GKRP on glucokinase activity", "assay_type": "biochemical", "conditions": "GKRP dosed in excess over GK (15 nM), alone", "source_text": "as §1, §2"}},
  "data": [
    {"molecule": "O=C(CO)[C@@H](O)[C@H](O)[C@H](O)COP(=O)(O)O", "note": "[F6P, fructose-6-phosphate]", "values": [
      {"measurement": "protection of GKRP regions against H/D exchange by the ligand", "setting": "hGKRP_C-His [1]", "result": "protection against H/D exchange"},
      {"measurement": "Kd", "setting": "rat GKRP", "result": 20000, "unit": "nM"}
    ]},
    {"molecule": "O=C(COP(=O)(O)O)[C@@H](O)[C@H](O)[C@H](O)CO", "note": "[F1P, fructose-1-phosphate]", "values": [
      {"measurement": "EC50", "setting": "hGKRP_C-His [2]", "result": "6280 ± 1070", "unit": "nM"},
      {"measurement": "EC50", "setting": "hGKRP_C-His_K326T/K327T", "result": "5080 ± 1380", "unit": "nM"},
      {"measurement": "protection of GKRP regions against H/D exchange by the ligand", "setting": "hGKRP_C-His [1]", "result": "protection against H/D exchange"},
      {"measurement": "Kd", "setting": "rat GKRP", "result": 1000, "unit": "nM"}
    ]},
    {"molecule": "hGKRP_C-His (human glucokinase regulatory protein with C-terminal LEHHHHHH octapeptide) (other) MPGTKRFQHVIETPEPGKWELSGYEAAVPITEKSNPLTQDLDKADAENIVRLLGQCDAEIFQEEGQALSTYQRLYSESILTTMVQVAGKVQEVLKEPDGGLVVLSGGGTSGRMAFLMSVSFNQLMKGLGQKPLYTYLIAGGDRSVVASREGTEDSALHGIEELKKVAAGKKRVIVIGISVGLSAPFVAGQMDCCMNNTAVFLPVLVGFNPVSMARNDPIEDWSSTFRQVAERMQKMQEKQKAFVLNPAIGPEGLSGSSRMKGGSATKILLETLLLAAHKTVDQGIAASQRCLLEILRTFERAHQVTYSQSPKIATLMKSVSTSLEKKGHVYLVGWQTLGIIAIMDGVECIHTFGADFRDVRGFLIGDHSDMFNQKAELTNQGPQFTFSQEDFLTSILPSLTEIDTVVFIFTLDDNLTEVQTIVEQVKEKTNHIQALAHSTVGQTLPIPLKKLFPSIISITWPLLFFEYEGNFIQKFQRELSTKWVLNTVSTGAHVLLGKILQNHMLDLRISNSKLFWRALAMLQRFSGQSKARCIESLLRAIHFPQPLSDDIRAAPISCHVQVAHEKEQVIPIALLSLLFRCSITEAQAHLAAAPSVCEAVRSALAGPGQKRTADPLEILEPDVQLEHHHHHH", "values": [
      {"measurement": "IC50 of inhibition of GK activity in the presence of 6 µM fructose 6-phosphate", "setting": "human liver glucokinase [3]", "result": 74, "unit": "nM"},
      {"measurement": "IC50 of inhibition of apparent GK enzymatic activity (glucose-6-phosphate dehydrogenase coupled assay), GKRP alone", "setting": "human liver glucokinase [3]", "result": 124, "unit": "nM"},
      {"measurement": "inhibition of the apparent GK enzymatic activity", "setting": "human liver glucokinase [4]", "result": "> 90", "unit": "%"}
    ]},
    {"molecule": "hGKRP_C-His_K326T/K327T (other) MPGTKRFQHVIETPEPGKWELSGYEAAVPITEKSNPLTQDLDKADAENIVRLLGQCDAEIFQEEGQALSTYQRLYSESILTTMVQVAGKVQEVLKEPDGGLVVLSGGGTSGRMAFLMSVSFNQLMKGLGQKPLYTYLIAGGDRSVVASREGTEDSALHGIEELKKVAAGKKRVIVIGISVGLSAPFVAGQMDCCMNNTAVFLPVLVGFNPVSMARNDPIEDWSSTFRQVAERMQKMQEKQKAFVLNPAIGPEGLSGSSRMKGGSATKILLETLLLAAHKTVDQGIAASQRCLLEILRTFERAHQVTYSQSPKIATLMKSVSTSLETTGHVYLVGWQTLGIIAIMDGVECIHTFGADFRDVRGFLIGDHSDMFNQKAELTNQGPQFTFSQEDFLTSILPSLTEIDTVVFIFTLDDNLTEVQTIVEQVKEKTNHIQALAHSTVGQTLPIPLKKLFPSIISITWPLLFFEYEGNFIQKFQRELSTKWVLNTVSTGAHVLLGKILQNHMLDLRISNSKLFWRALAMLQRFSGQSKARCIESLLRAIHFPQPLSDDIRAAPISCHVQVAHEKEQVIPIALLSLLFRCSITEAQAHLAAAPSVCEAVRSALAGPGQKRTADPLEILEPDVQLEHHHHHH", "values": [
      {"measurement": "IC50 of decrease of apparent GK activity in the presence of 6 µM F6P", "setting": "human liver glucokinase [3]", "result": 71, "unit": "nM"},
      {"measurement": "IC50 of decrease of apparent GK activity, GKRP alone", "setting": "human liver glucokinase [3]", "result": 116, "unit": "nM"}
    ]}
  ]
}
